In PubChem BioAssay (NCI):
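Cultured in 96-well plates, cells were exposed to test compound for 48 hours across five concentrations. At the TGI there is no net growth.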

Key:
Test in all cases: NCI anticancer screen, dose series, 48 h
CCRF-CEM leukemia = tested on: CCRF-CEM leukemia
KM12 colon = tested on: KM12 colon
K-562 leukemia = tested on: K-562 leukemia
SN12C renal = tested on: SN12C renal
SK-MEL-2 melanoma = tested on: SK-MEL-2 melanoma
HS 578T breast = tested on: HS 578T breast
NCI/ADR-RES ovarian = tested on: NCI/ADR-RES ovarian
SF-539 CNS = tested on: SF-539 CNS
MALME-3M melanoma = tested on: MALME-3M melanoma
RXF 393 renal = tested on: RXF 393 renal
SK-MEL-5 melanoma = tested on: SK-MEL-5 melanoma
A498 renal = tested on: A498 renal
HCC-2998 colon = tested on: HCC-2998 colon

SMILES	TGI (CCRF-CEM leukemia) [µM]	TGI (KM12 colon) [µM]	TGI (K-562 leukemia) [µM]	TGI (SN12C renal) [µM]	TGI (SK-MEL-2 melanoma) [µM]	TGI (HS 578T breast) [µM]	TGI (NCI/ADR-RES ovarian) [µM]	TGI (SF-539 CNS) [µM]	TGI (MALME-3M melanoma) [µM]	TGI (RXF 393 renal) [µM]	TGI (SK-MEL-5 melanoma) [µM]	TGI (A498 renal) [µM]	TGI (HCC-2998 colon) [µM]
COc1ccc(-c2nc3ccc(C)cc3o2)c(OC)c1	65.8	40.4	> 64.5	> 82.1	71.7	71.4	99.9	40.9	42.1	53.8	43.3	46.5	45.8
O=[N+]([O-])c1cc(Cl)ccc1S(=O)(=O)c1ccccc1	> 100	> 100	> 100	> 100	53.8	> 100	> 100	> 100	> 100	> 100	> 100	> 100	> 100
C=C1C(=O)C=C2C=C3C(=O)C(C)(C)C[C@]3(O)C12C (stereo partly drawn)	1.37	32.1	3.98	23.9	33.2	43.8	> 100	> 57.5	3.65	3.33	19	23.2	34.4
COc1cc2cc(C(=O)N3CC(COS(C)(=O)=O)c4c3cc([N+](=O)[O-])c3ccccc43)[nH]c2c(OC)c1OC (stereo not drawn)	> 31.6	> 31.6	> 100	> 100	> 31.6	> 31.6	> 31.6	> 31.6	–	> 100	–	53	> 31.6
COC(=O)c1ccccc1CC1Cc2cc3c(cc2C1)CCC3	39.1	71.1	61.1	> 100	43.9	> 100	> 100	> 100	52	63.6	55.3	> 100	> 100
CC(O[Si](C)(C)C(C)(C)C)[C@H](NC(=O)OCC(Cl)(Cl)Cl)C(=O)O (stereo partly drawn)	> 100	> 100	> 100	> 100	–	> 100	> 100	> 100	> 100	> 100	> 100	> 100	> 100
Cc1c(-c2ccccc2)n(C)c2cn[nH]c(=O)c12	> 100	> 100	> 100	–	48	> 100	69.4	> 100	> 100	–	31.8	> 100	85.8
O=S(=O)(Nc1ccccc1S(=O)(=O)c1ccccc1)c1ccccc1	> 100	> 100	> 100	> 100	> 100	> 100	> 100	> 100	> 100	> 100	> 100	> 100	> 100
CCCCc1ccc(Nc2nc(Cl)c3[nH]cnc3n2)cc1	> 100	32	> 100	49.9	31	50.5	47.7	32.7	42.2	31.6	31.6	55.4	41.2
COc1cc(Cn2c3c(c4cc(O)ccc42)C(=O)c2ccccc2C3=O)cc(OC)c1	–	54.8	–	42.2	> 100	> 100	28.8	7.38	43.8	35.5	18.7	38.6	37.3
CC(=O)CN=C(C)NNc1ccc([N+](=O)[O-])cc1[N+](=O)[O-]	> 100	–	> 100	> 100	> 100	> 100	> 100	> 100	> 100	> 100	> 100	> 100	> 100
CC(C)(C)OC(=O)C1/C(=C/CO)CN1C(=O)OC(C)(C)C (stereo not drawn)	> 100	–	> 100	> 100	> 100	> 100	> 100	> 100	> 100	–	> 100	> 100	> 100
Cc1cc2c3c(ccc4ncc(c43)CN2c2ccc(NS(C)(=O)=O)cc2)[nH]1	> 100	> 100	> 100	–	> 100	> 100	> 100	–	–	> 100	> 100	> 100	> 100
CC(=O)OC1CC(OC2C(O)CC(OC3C(O)CC(OC4CCC5(C)C(CCC6C5CC(O)C5(C)C(C7=CC(=O)OC7)CCC65O)C4)OC3C)OC2C)OC(C)C1O (stereo not drawn) (tested in a mixture with another compound)	> 100	0.116	0.0685	–	0.207	0.435	0.0732	0.113	0.0479	0.0812	0.0838	0.307	0.463
CCOC(=O)Cn1nc2ccc(Nc3nc4ccccc4nc3C(=O)OCC)cc2n1	> 100	> 100	> 100	> 100	> 100	> 100	> 100	52.8	> 100	58.2	> 100	> 100	> 100
Nc1nc(Nc2ccc(Cl)cc2)sc1C(=O)c1cc2ccccc2oc1=O	> 100	> 100	> 100	> 100	75.8	> 100	> 100	> 100	76.8	> 100	> 100	93.7	> 100
CC(C)C1OCC(CO)CO1 (stereo not drawn)	> 100	> 100	–	> 100	> 100	> 100	> 100	> 100	> 100	> 100	> 100	> 100	> 100
Nc1nc(Cl)cc(Nc2ccc3c(c2)CCC3)n1	> 100	> 100	> 100	> 100	> 100	> 100	> 100	> 100	> 100	–	> 100	> 100	> 100
